Data reported in patent US10087178B2, “Substituted spiropyrido[1,2-a]pyrazine derivative and medicinal use thereof as HIV integrase inhibitor” (priority 2012, dated 2018).
Where a name gives a salt, the structure may show the parent alone.

Tested on: HIV-1 NL4-3 strain
Experiment: Evaluation of antiviral activity: acute infection system of MT-4 cell with HIV-1 NL4-3 strain
Assay type: cell-based
Conditions: Human immunodeficiency virus 1, NL43, MT4, 120 h, MT-4 cells infected with HIV-1 NL4-3 strain (MOI 0.05), cultured 5 days, Cell Titer-Glo; read-out: antiviral activity (EC50)

Structure (SMILES) | EC50
CC(C)N1C[C@]2(C[C@H](C(=O)N(C)C)C2)n2cc(C(=O)NCc3ccc(F)cc3F)c(=O)c(O)c2C1=O [Example S31, N^7′-(2,4-difluorobenzyl)-9′-hydroxy-2′-isopropyl-N^3-N^3-dimethyl-1′,8′-dioxo-1′,2′,3′,8′-tetrahydrospiro[cyclobutane-1,4′-pyrido[1,2-a]pyrazine]- cis-3,7′-dicarboxamide hydrochloride] | 24 nM
CC(C)N1C[C@]2(C[C@H](CO)C2)n2cc(C(=O)NCc3ccc(F)cc3F)c(=O)c(O)c2C1=O [Example S22, N-(2,4-difluorobenzyl)-9′-hydroxy-cis-3-(hydroxymethyl)-2′-isopropyl-1′,8′-dioxo-1′,2′,3′,8′-tetrahydrospiro[cyclobutane-1,4′-pyrido[1,2-a]pyrazine]-7′-carboxamide hydrobromide] | 5 nM
CCCO[C@H]1C[C@]2(CN(C)C(=O)c3c(O)c(=O)c(C(=O)NCc4cccc(Cl)c4F)cn32)C1 [Example S43, N-(3-chloro-2-fluorobenzyl)-9′-hydroxy-2′-methyl-1′-8′-dioxo-cis-3-propoxy-1′,2′,3′,8′-tetrahydrospiro[cyclobutane-1,4′-pyrido[1,2-a]pyrazine]-7′-carboxamide hydrochloride] | 4.7 nM
CN1C[C@]2(C[C@@H](CO)C2)n2cc(C(=O)NCc3cccc(Cl)c3F)c(=O)c(O)c2C1=O [Example S36, N-(3-chloro-2-fluorobenzyl)-9′-hydroxy-trans-3-(hydroxymethyl)-2′-methyl-1′,8′-dioxo-1′,2′,3′,8′-tetrahydrospiro[cyclobutane-1,4′-pyrido[1,2-a]pyrazine]-7′-carboxamide] | 15 nM
CO[C@H]1C[C@]2(CN(C)C(=O)c3c(OC(C)=O)c(=O)c(C(=O)NCc4cccc(Cl)c4F)cn32)C1 [Example S64, 7′-(3-chloro-2-fluorobenzylcarbamoyl)-cis-3-methoxy-2′-methyl-1′,8′-dioxo-1′,2′,3′,8′-tetrahydrospiro[cyclobutane-1,4′-pyrido[1,2-a]pyrazin]-9′-yl acetate] | 2.8 nM
CCO[C@H]1C[C@]2(CN(C)C(=O)c3c(O)c(=O)c(C(=O)NCc4cccc(Cl)c4F)cn32)C1 [Example S29, N-(3-chloro-2-fluorobenzyl)- cis-3-ethoxy-9′-hydroxy-2′-methyl-1′,8′-dioxo-1′,2′,3′,8′-tetrahydrospiro[cyclobutane-1,4′-pyrido[1,2-a]pyrazine]-7′-carboxamide hydrochloride] | 4.3 nM
CN(C)C(=O)[C@H]1C[C@@]12CN(C1CC1)C(=O)c1c(O)c(=O)c(C(=O)NCc3cccc(Cl)c3F)cn12 [Example T32, (1S,2S)-N^7′-(3-chloro-2-fluorobenzyl)-2′-cyclopropyl-9′-hydroxy-N^2,N^2-dimethyl-1′,8′-dioxo-1′,2′,3′,8′-tetrahydrospiro[cyclopropane-1,4′-pyrido[1,2-a]pyrazine]-2,7′-dicarboxamide] | 3.3 nM
CN1C[C@]2(C[C@H](CO)C2)n2cc(C(=O)NCc3cccc(Cl)c3F)c(=O)c(O)c2C1=O [Example S37, N-(3-chloro-2-fluorobenzyl)-9′-hydroxy-cis-3-(hydroxymethyl)-2′-methyl-1′,8′-dioxo-1′,2′,3′,8′-tetrahydrospiro[cyclobutane-1,4′-pyrido[1,2-a]pyrazine]-7′-carboxamide hydrochloride] | 3.8 nM
COC[C@H]1C[C@]2(CN(C)C(=O)c3c(OC(=O)C(C)(C)C)c(=O)c(C(=O)NCc4cccc(Cl)c4F)cn32)C1 [Example S71, 7′-(3-chloro-2-fluorobenzylcarbamoyl)-cis-3-(methoxymethyl)-2′-methyl-1′,8′-dioxo-1′,2′,3′,8′-tetrahydrospiro[cyclobutane-1,4′-pyrido[1,2-a]pyrazin]-9′-yl pivalate] | 1.9 nM
CCN1C[C@@]2(C[C@H]2COC)n2cc(C(=O)NCc3cccc(Cl)c3F)c(=O)c(O)c2C1=O [Example T30, (1S,2R)-N-(3-chloro-2-fluorobenzyl)-2′-ethyl-9′-hydroxy-2-(methoxymethyl)-1′,8′-dioxo-1′,2′,3′,8′-tetrahydrospiro[cyclopropane-1,4′-pyrido[1,2-a]pyrazine]-7′-carboxamide] | 4.4 nM
COC[C@H]1C[C@@]12Cn1cc(C(=O)NCc3ccc(F)cc3F)c(=O)c(O)c1C(=O)N2C(C)C [Example T41, (1S,2S)-N-(2,4-difluorobenzyl)-9′-hydroxy-2′-isopropyl-2-(methoxymethyl)-1′,8′-dioxo-1′,2′,4′,8′-tetrahydrospiro[cyclopropane-1,3′-pyrido[1,2-a]pyrazine]-7′-carboxamide] | 2.2 nM
CCN1C[C@@]2(C[C@@H]2COC)n2cc(C(=O)NCc3ccc(F)cc3F)c(=O)c(O)c2C1=O [Example T2, (1S,2S)-N-(2,4-difluroobenzyl)-2′-ethyl-9′-hydroxy-2-(methoxymethyl)-1′,8′-dioxo-1′,2′,3′,8′-tetrahydrospiro[cyclopropane-1,4′-pyrido[1,2-a]pyrazine]-7′-carboxamide hydrochloride] | 4.2 nM
CCO[C@H]1C[C@]2(Cn3cc(C(=O)NCc4cccc(Cl)c4F)c(=O)c(O)c3C(=O)N2CC)C1 [Example S57, N-(3-chloro-2-fluorobenzyl)- cis-3-ethoxy-2′-ethyl-9′-hydroxy-1′,8′-dioxo-1′,2′,4′,8′-tetrahydrospiro[cyclobutane-1,3′-pyrido[1,2-a]pyrazine]-7′-carboxamide hydrochloride] | 4.7 nM
CC(=O)NC[C@H]1C[C@]2(CN(C(C)C)C(=O)c3c(O)c(=O)c(C(=O)NCc4ccc(F)cc4F)cn32)C1 [Example S38, cis-3-(acetamidomethyl)-N-(2,4-difluorobenzyl)-9′-hydroxy-2′-isopropyl-1′,8′-dioxo-1′,2′,3′,8′-tetrahydrospiro[cyclobutane-1,4′-pyrido[1,2-a]pyrazine]-7′-carboxamide hydrochloride] | 50 nM
CCN1C[C@@]2(C[C@@H]2C(=O)NC)n2cc(C(=O)NCc3ccc(F)cc3F)c(=O)c(O)c2C1=O [Example T8, (1S,2S)-N^7′-(2,4-difluorobenzyl)-2′-ethyl-9′-hydroxy-N^2-methyl-1′,8′-dioxo-1′,2′,3′,8′-tetrahydrospiro[cylcopropane-1,4′-pyrido[1,2-a]pyrazine]-2,7′-dicarboxamide hydrochloride] | 6.1 nM

Same assay, conditions: Human immunodeficiency virus 1, NL43, MT4, 120 h, antiviral activity; MT-4 cells infected with HIV-1 NL4-3 (MOI 0.05), 5 days culture, Cell Titer-Glo luminescence; read-out: EC50

Structure (SMILES) | EC50
CN1C[C@]2(C[C@H](O)C2)n2cc(C(=O)NCc3ccc(F)cc3F)c(=O)c(O)c2C1=O [Example S12, N-(2,4-difluorobenzyl)-cis-3,9′-dihydroxy-2′-methyl-1′,8′-dioxo-1′,2′,3′,8′-tetrahydrospiro[cyclobutane-1,4′-pyrido[1,2-a]pyrazine]-7′-carboxamide hydrobromide] | 23 nM
CCN1C[C@@]2(C[C@@H]2C(=O)N(C)C)n2cc(C(=O)NCc3ccc(F)cc3F)c(=O)c(O)c2C1=O [Example 19, (1S,2S)—N^7′-(2,4-difluorobenzyl)-2′-ethyl-9′-hydroxy-N^2,N^2-dimethyl-1′,8′-dioxo-1′,2′,3′,8′-tetrahydrospiro[cyclopropane-1,4′-pyrido[1,2-a]pyrazine]-2,7′-dicarboxamide hydrochloride] | 4.2 nM
CCO[C@H]1C[C@@]2(CN(C(C)C)C(=O)c3c(O)c(=O)c(C(=O)NCc4ccc(F)cc4F)cn32)C1 [Example S7, N-(2,4-difluorobenzyl)- trans-3-ethoxy-9′-hydroxy-2′-isopropyl-1′,8′-dioxo-1′,2′,3′,8′-tetrahydrospiro[cyclobutane-1,4′-pyrido[1,2-a]pyrazine]-7′-carboxamide hydrochloride] | 3.7 nM
CC(C)N1CC2(CC(O)C2)n2cc(C(=O)NCc3ccc(F)cc3F)c(=O)c(O)c2C1=O (single isomer, unassigned) [Example S4, N-(2,4-difluorobenzyl)-cis-3,9′-dihydroxy-2′-isopropyl-1′,8′-dioxo-1′,2′,3′,8′-tetrahydrospiro[cyclobutane-1,4′-pyrido[1,2-a]pyrazine]-7′-carboxamide] | 4.9 nM

Same assay, conditions: Human immunodeficiency virus 1, NL43, MT4, 120 h, read-out: antiviral activity (EC50), MT-4 cells infected with HIV-1 NL4-3 strain (MOI 0.05), cultured 5 days, Cell Titer-Glo

Structure (SMILES) | EC50
CCN1C[C@]2(C[C@H]2COC)n2cc(C(=O)NCc3cccc(Cl)c3F)c(=O)c(O)c2C1=O [Example T20, (1R,2R)-N-(3-chloro-2-fluorobenzyl)-2′-ethyl-9′-hydroxy-2-(methoxymethyl)-1′,8′-dioxo-1′,2′,3′,8′-tetrahydrospiro[cyclopropane-1,4′-pyrido[1,2-a]pyrazine]-7′-carboxamide hydrochloride] | 3.5 nM
COC[C@H]1C[C@@]12CN(C)C(=O)c1c(O)c(=O)c(C(=O)NCc3cc(OC(C)C)cc(Cl)c3F)cn12 [Example T26, (1S,2S)-N-(3-chloro-2-fluoro-5-isopropoxybenzyl)-9′-hydroxy-2-(methoxymethyl)-2′-methyl-1′,8′-dioxo-1′,2′,3′,8′-tetrahydrospiro[cyclopropane-1,4′-pyrido[1,2-a]pyrazine]-7′-carboxamide hydrochloride] | 15 nM
CCN1C[C@@]2(C[C@@H]2CO)n2cc(C(=O)NCc3ccc(F)cc3F)c(=O)c(O)c2C1=O [Example T1, (1S,2S)-N-(2,4-difluorobenzyl)-2′-ethyl-9′-hydroxy-2-(hydroxymethyl)-1′,8′-dioxo-1′,2′,3′,8′-tetrahydrospiro[cyclopropane-1,4′-pyrido[1,2-a]pyrazine]-7′-carboxamide hydrochloride] | 18 nM

Same assay, conditions: Human immunodeficiency virus 1, NL43, MT4, 120 h; read-out: antiviral activity (EC50)

Structure (SMILES) | EC50
COC[C@H]1C[C@]2(CN(C)C(=O)c3c(O)c(=O)c(C(=O)NCc4cccc(Cl)c4F)cn32)C1 [Example 29, Monopotassium 7′-(3-chloro-2-fluorobenzylcarbamoyl)-cis-3-(methoxymethyl)-2′-methyl-1′,8′-dioxo-1′,2′,3′,8′-tetrahydrospiro[cyclobutane-1,4′-pyrido[1,2-a]pyrazin]-9′-olate] | 2.5 nM
